Reference: EPA's ToxRefDB 2

Assays:
rat [1] = settings: Prenatal developmental toxicity study, other, Oral, Gavage/Intubation, dose end: 15 GD
mouse [2] = settings: Carcinogenicity, other, Oral, Feed, dose end: 18 month, group: systemic
rat [3] = settings: Subchronic oral toxicity in rodents, other, Feed, dose end: 90 day, group: systemic
rat [4] = settings: Multigenerational reproductive toxicity study, other, Oral, Feed, dose end: 2 generation
rat [5] = settings: Subchronic oral toxicity in rodents, wistar, Feed, dose end: 90 day, group: systemic
rat [6] = settings: Prenatal developmental toxicity study, wistar, Oral, [Not Specified], dose end: 20 GD
dog [7] = settings: Chronic toxicity; beagle; Oral; Feed; dose end: 12 month; group: systemic; systemic / in life observation / body weight / body weight gain + systemic / in life observation / food consumption / food consumption + …
rat [8] = settings: Combined chronic toxicity/carcinogenicity, other, Oral, Feed, dose end: 24 month, group: systemic
dog [9] = settings: Subchronic oral toxicity in nonrodent, beagle, Feed, dose end: 3 month, group: systemic, systemic / in life observation / body weight / body weight gain + systemic / in life observation / food consumption / food consumption
mouse [10] = settings: Subchronic oral toxicity in rodents, other, Feed, dose end: 90 day, group: systemic
rabbit = settings: Prenatal developmental toxicity study, Russian (Chbb:HM, SPF), Oral, Gavage/Intubation, dose end: 19 GD
rat [11] = settings: Subchronic oral toxicity in rodents, sprague dawley, Feed, dose end: 90 day, group: systemic
dog [12] = settings: Subchronic oral toxicity in nonrodent, beagle, Capsule, dose end: 13 week, group: systemic
rat [13] = settings: Combined chronic toxicity/carcinogenicity, sprague dawley, Oral, Feed, dose end: 24 month, group: systemic
rat [14] = settings: Prenatal developmental toxicity study, sprague dawley, Oral, Gavage/Intubation, dose end: 15 GD
mouse [15] = settings: Subchronic oral toxicity in rodents, Feed, dose end: 3 month, group: systemic
mouse [16] = settings: Carcinogenicity; other; Oral; Feed; group: systemic; systemic / hematology / anemia / anemia - nos + systemic / pathology microscopic / bone marrow / hemosiderosis + systemic / pathology …
rat [17] = settings: Multigenerational reproductive toxicity study, other, Oral, Feed, dose end: 2 generation; remark: listed apart in the source
dog [18] = settings: Chronic toxicity; beagle; Oral; Capsule; dose end: 52 week; group: systemic; systemic / hematology / anemia / anemia - hemolytic + systemic / hematology / erythrocyte (rbc) count differential / erythrocyte (rbc) + …
[19] = group: developmental, developmental / developmental malformation / bone / incomplete ossification + developmental / developmental malformation / bone / unossified…
[20] = group: maternal, systemic / in life observation / body weight / body weight + systemic / in life observation / body weight / body weight gain + systemic / in…
[21] = systemic / pathology microscopic / pancreas / hyperplasia
[22] = systemic / pathology microscopic / pancreas / hyperplasia + systemic / in life observation / body weight / body weight + systemic / in life …
[23] = systemic / clinical chemistry / cholesterol / cholesterol + systemic / clinical chemistry / lipids / phospholipids
[24] = group: offspring, systemic / in life observation / body weight / offspring (pup) weight
[25] = group: parental, systemic / organ weight / kidney / relative to body weight
[26] = systemic / clinical chemistry / calcium / calcium
[27] = systemic / in life observation / body weight / body weight + systemic / in life observation / body weight / body weight gain + systemic / …
[28] = group: developmental, developmental / developmental malformation / bone / unossified
[29] = group: developmental, developmental / developmental malformation / bone / unossified + developmental / developmental malformation / bone / incomplete ossification…
[30] = group: maternal, systemic / in life observation / clinical signs / piloerection + systemic / in life observation / clinical signs / salivation + systemic / …
[31] = systemic / pathology microscopic / liver / dilatation + systemic / clinical chemistry / urea nitrogen / urea + systemic / in life …
[32] = systemic / pathology microscopic / liver / necrosis
[33] = systemic / pathology microscopic / liver / necrosis + systemic / hematology / leukocyte (wbc) count differential / leukocyte (wbc) + …
[34] = group: developmental, developmental / developmental malformation / bone / full supernumerary
[35] = group: maternal, systemic / in life observation / body weight / body weight gain
[36] = systemic / in life observation / body weight / body weight + systemic / in life observation / food consumption / food consumption + systemic…
[37] = systemic / hematology / anemia / anemia - hemolytic + systemic / hematology / erythrocyte (rbc) count differential / erythrocyte (rbc) + …
[38] = systemic / hematology / anemia / anemia - hemolytic + systemic / in life observation / body weight / body weight + systemic / in life …
[39] = systemic / in life observation / clinical signs / alopecia
[40] = group: developmental, developmental / developmental malformation / trunk / umbilical hernia
[41] = group: maternal, systemic / in life observation / clinical signs / hemorrhagic perineal discharge
[42] = group: maternal, systemic / in life observation / clinical signs / hemorrhagic perineal discharge + reproductive / reproductive performance / …
[43] = systemic / organ weight / spleen / relative to body weight
[44] = systemic / organ weight / spleen / relative to body weight + systemic / pathology microscopic / spleen / hemosiderosis + systemic / in life …
[45] = group: offspring, systemic / in life observation / body weight / offspring (pup) weight + systemic / in life observation / body weight / offspring (pup) …
[46] = group: parental, systemic / organ weight / spleen / absolute + systemic / organ weight / spleen / relative to body weight + systemic / pathology microscopic…
[47] = group: parental, systemic / organ weight / spleen / relative to body weight

`Cc1cc(C2CC2)nc(Nc2ccccc2)n1` [Cyprodinil] showed an LEL (rat [1]; [19]) of 1000 mg/kg/day, an LOAEL (rat [1]; [19]) of 1000 mg/kg/day and an NEL (rat [1]; [19]) of 200 mg/kg/day. The NOAEL (rat [1]; [19]) was 200 mg/kg/day, the LEL (rat [1]; [20]) was 1000 mg/kg/day and the LOAEL (rat [1]; [20]) was 1000 mg/kg/day. It also gave an NEL (rat [1]; [20]) of 200 mg/kg/day, an NOAEL (rat [1]; [20]) of 200 mg/kg/day and an LEL (mouse [2]; [21]) of 212 mg/kg/day. For the same compound, the LOAEL (mouse [2]; [21]) was 212 mg/kg/day, the NEL (mouse [2]; [22]) was 16.1 mg/kg/day and the NOAEL (mouse [2]; [22]) was 16.1 mg/kg/day. For the same compound, the LEL (rat [3]; [23]) was 3.24 mg/kg/day, the NEL (rat [3]; [23]) was < 3.24 mg/kg/day and the LOAEL (rat [3]; systemic / pathology microscopic / kidney / lesion(s) (nos)) was 18.9 mg/kg/day. For the same compound, the NOAEL (rat [3]; systemic / pathology microscopic / kidney / lesion(s) (nos) + systemic / clinical chemistry / albumin / albumin + systemic / clinical …) was 3.14 mg/kg/day, the LEL (rat [4]; [24]) was 332 mg/kg/day and the LOAEL (rat [4]; [24]) was 332 mg/kg/day. It also gave an NEL (rat [4]; [24]) of 77.2 mg/kg/day, an NOAEL (rat [4]; [24]) of 77.2 mg/kg/day and an LOAEL (rat [4]; group: parental, systemic / in life observation / body weight / body weight) of 326 mg/kg/day. The NOAEL (rat [4]; group: parental, systemic / in life observation / body weight / body weight + systemic / organ weight / heart / relative to body weight + systemic / organ …) was 81.3 mg/kg/day, the LEL (rat [4]; [25]) was 0.7 mg/kg/day and the NEL (rat [4]; [25]) was < 0.7 mg/kg/day. For the same compound, the LEL (rat [5]; [26]) was 3.52 mg/kg/day, the NEL (rat [5]; [26]) was < 3.52 mg/kg/day and the LOAEL (rat [5]; [27]) was 131 mg/kg/day. For the same compound, the NOAEL (rat [5]; [27]) was 17.8 mg/kg/day, the LEL (rat [6]; [28]) was 200 mg/kg/day and the LOAEL (rat [6]; [28]) was 200 mg/kg/day. It also gave an NEL (rat [6]; [29]) of 20 mg/kg/day, an NOAEL (rat [6]; [29]) of 20 mg/kg/day and an LEL (rat [6]; [30]) of 200 mg/kg/day. The LOAEL (rat [6]; [30]) was 200 mg/kg/day, the NEL (rat [6]; [30]) was 20 mg/kg/day and the NOAEL (rat [6]; [30]) was 20 mg/kg/day. For the same compound, the LEL (dog [7]) was 446 mg/kg/day, the LOAEL (dog [7]) was 446 mg/kg/day and the NEL (dog [7]) was 68 mg/kg/day. It also gave an NOAEL (dog [7]) of 68 mg/kg/day, an LOAEL (rat [8]; systemic / pathology microscopic / liver / dilatation) of 35.6 mg/kg/day and an LEL (rat [8]; systemic / pathology microscopic / liver / dilatation + systemic / clinical chemistry / urea nitrogen / urea) of 35.6 mg/kg/day. For the same compound, the NEL (rat [8]; [31]) was 2.7 mg/kg/day, the NOAEL (rat [8]; [31]) was 2.7 mg/kg/day and the LEL (dog [9]) was 560 mg/kg/day. It also gave an LOAEL (dog [9]) of 560 mg/kg/day, an NEL (dog [9]) of 210 mg/kg/day and an NOAEL (dog [9]) of 210 mg/kg/day. It also gave an LEL (mouse [10]; [32]) of 257 mg/kg/day, an LOAEL (mouse [10]; [32]) of 257 mg/kg/day and an NEL (mouse [10]; [33]) of 73.3 mg/kg/day. The NOAEL (mouse [10]; [33]) was 73.3 mg/kg/day, the LEL (rabbit; [34]) was 400 mg/kg/day and the LOAEL (rabbit; [34]) was 400 mg/kg/day. It also gave an NEL (rabbit; [34]) of 150 mg/kg/day, an NOAEL (rabbit; [34]) of 150 mg/kg/day and an LEL (rabbit; [35]) of 400 mg/kg/day. The LOAEL (rabbit; [35]) was 400 mg/kg/day, the NEL (rabbit; [35]) was 150 mg/kg/day and the NOAEL (rabbit; [35]) was 150 mg/kg/day.

`CSC(=O)c1cccc2nnsc12` [Acibenzolar-S-methyl] gave an LEL (rat [11]; systemic / clinical chemistry / sodium / sodium) of 126 mg/kg/day, an LOAEL (rat [11]; [36]) of 516 mg/kg/day and an NEL (rat [11]; [36]) of 24.6 mg/kg/day. The NOAEL (rat [11]; [36]) was 126 mg/kg/day, the LOAEL (dog [12]; [37]) was 200 mg/kg/day and the NEL (dog [12]; [37]) was 10 mg/kg/day. It also gave an NOAEL (dog [12]; [37]) of 50 mg/kg/day, an LEL (dog [12]; systemic / organ weight / liver / absolute + systemic / organ weight / liver / relative to body weight) of 50 mg/kg/day and an LOAEL (rat [13]; [38]) of 312 mg/kg/day. For the same compound, the NOAEL (rat [13]; [38]) was 96.9 mg/kg/day, the LEL (rat [13]; [39]) was 0.9 mg/kg/day and the NEL (rat [13]; [39]) was < 0.9 mg/kg/day. For the same compound, the LEL (rat [14]; [40]) was 10 mg/kg/day, the LOAEL (rat [14]; [40]) was 10 mg/kg/day and the NEL (rat [14]; [40]) was < 10 mg/kg/day. The NOAEL (rat [14]; [40]) was < 10 mg/kg/day, the LEL (rat [14]; [41]) was 50 mg/kg/day and the LOAEL (rat [14]; [41]) was 400 mg/kg/day. It also gave an NEL (rat [14]; [42]) of 10 mg/kg/day, an NOAEL (rat [14]; [42]) of 200 mg/kg/day and an LEL (mouse [15]; [43]) of 47.4 mg/kg/day. The NEL (mouse [15]; [43]) was < 47.4 mg/kg/day, the LOAEL (mouse [15]; [44]) was 152 mg/kg/day and the NOAEL (mouse [15]; [44]) was 30.6 mg/kg/day. The LEL (mouse [16]) was 234 mg/kg/day, the LOAEL (mouse [16]) was 234 mg/kg/day and the NEL (mouse [16]) was 10.8 mg/kg/day. The NOAEL (mouse [16]) was 10.8 mg/kg/day, the LEL (rat [17]; [45]) was 100 mg/kg/day and the LOAEL (rat [17]; [45]) was 100 mg/kg/day. The NEL (rat [17]; [45]) was 10 mg/kg/day, the NOAEL (rat [17]; [45]) was 10 mg/kg/day and the LOAEL (rat [17]; [46]) was 100 mg/kg/day. The NOAEL (rat [17]; [46]) was 10 mg/kg/day, the LEL (rat [17]; [47]) was 1 mg/kg/day and the NEL (rat [17]; [47]) was < 1 mg/kg/day. The LEL (dog [18]) was 200 mg/kg/day, the LOAEL (dog [18]) was 200 mg/kg/day and the NEL (dog [18]) was 25 mg/kg/day. It also gave an NOAEL (dog [18]) of 25 mg/kg/day.
